Experimental data published in patent US20250074902A1, “FUSED BICYCLIC HETEROARYL AMIDE COMPOUND AS PROTEIN AGGREGATION INHIBITOR” (SHANGHAI JINGXIN BIOMEDICAL CO., LTD., priority 2021, published 2025).

Target: T1, α-synuclein (Homo sapiens, UniProt P37840)
T1 construct: purchased Sino Biological
Assay: Detection of the ability of compounds to inhibit α-synuclein self-aggregation by HPLC
Assay type: biochemical
Conditions: test compound 200 μg/mL, α-synuclein 250 μg/ml, 37° C., 9 days, HPLC peak area of α-synuclein multimers vs model group; for inhibition at 200 µg/mL: read-out: inhibition rate (%)
Experimental: The test compound (for poorly soluble compounds, dissolve with an appropriate amount of DMSO first) and fresh α-synuclein monomers (purchased from Sino Biological) were added to pure water to a final protein concentration of 250 μg/ml, and the concentration of the test compound was 200 μg/mL, followed by incubation at 37° C. for 9 days. The peak area of α-synuclein multimers after incubation was detected by HPLC and the inhibition rate was calculated. […] Inhibition rate=(peak area of model group−peak area of example group)/peak area of model group×100%.

SMILES	inhibition at 200 µg/mL [%]	inhibition rate (%)
CCCCC(Cc1c[nH]c2ccccc12)NC(=O)c1cc2ccc(N3CCN(C(C)C)CC3)cc2s1 (stereo not shown) [Example 13, N-(1-(1H-indol-3-yl)hexane-2-yl)-6-(4-isopropylpiperazin-1-yl) benzo[b]thiophene-2-carboxamide]	94.4	
CCCCC(Cc1c[nH]c2ccccc12)NC(=O)c1cc2ccc(N3CCN(C)CC3)nc2s1 (stereo not shown) [Example 2, N-[1-(1H-indol-3-yl)hexyl-2-yl]-6-(4-methylpiperazin-1-yl) thiophene[2,3-b]pyridine-2-carboxamide]	86.8	
CCCCC(Cc1c[nH]c2ccccc12)NC(=O)c1cc2cnc(N3CCN(C)CC3)cc2s1 (stereo not shown) [Example 8, N-(1-(1H-indol-3-yl)hexane-2-yl)-6-(4-methylpiperazin-1-yl) thieno[3,2-c] pyridine-2-carboxamide]	73.7	
CC(C)/C=C/C(Cc1c[nH]c2ccccc12)NC(=O)c1cc2ccc(N3CCN(C)CC3)cc2s1 (stereo not shown) [Example 40, (E)-N-(1-(1H-indol-3-yl)-S-methyl-3-hexene-2-yl)-6-(4-methylpiperazin-yl) benzo[b]-thiophene-2-carboxamide]	76.8	
CC(C)=CCC(Cc1c[nH]c2ccccc12)NC(=O)c1cc2ccc(N3CCN(C)CC3)cc2s1 (stereo not shown) [Example 32, N-(1-(1H-indol-3-yl)-5-methyl-4-hexene-2-yl)-6-(4-methylpiperazin-1-yl) benzo[b]thiophene-2-carboxamide]	86.1	
CC/C=C/C(Cc1c[nH]c2ccccc12)NC(=O)c1cc2ccc(N3CCN(C)CC3)cc2s1 (stereo not shown) [Example 37, (E)-N-(1-(1H-indol-3-yl)-3-hexene-2-yl)-6-(4-methylpiperazin-1-yl) benzo-[b]thiophene-2-carboxamide]	86.7	
CCCCC(Cc1c[nH]c2ccccc12)NC(=O)c1cc2ccc(N3CCC(C)CC3)cc2s1 (stereo not shown) [Example 12, N-(1-(1H-indol-3-yl)hexane-2-yl)-6-(4-methylpiperidin-1-yl) benzo[b]thiophene-2-carboxamide]	86.9	
CCCCC(Cc1c[nH]c2ccccc12)NC(=O)c1cc2cccc(N3CCN(C)CC3)c2s1 (stereo not shown) [Example 10, N-(1-(1H-indol-3-yl)hexane-2-yl)-7-(4-methylpiperazin-1-yl) benzo[b]thiophene-2-carboxamide]	73.1	
CCCCC(Cc1c[nH]c2ccccc12)NC(=O)c1sc2cc(N3CCN(C)CC3)ccc2c1C (stereo not shown) [Example 11, N-(1-(1H-indol-3-yl)hexane-2-yl)-3-methyl-6-(4-methylpiperazin-1-yl) benzo[b]thiophene-2-carboxamide]	73.4	
CCCCC(Cc1c[nH]c2ccccc12)NC(=O)c1nc2ccc(N3CCN(C)CC3)cc2s1 (stereo not shown) [Example 4, N-(1-(1H-indol-3-yl)hexane-2-yl)-6-(4-methylpiperazin-1-yl) benzo[d]thiazole-2-carboxamide]	90.6	
C/C=C\CC(Cc1c[nH]c2ccccc12)NC(=O)c1cc2ccc(N3CCN(C)CC3)cc2s1 (stereo not shown) [Example 35, (Z)—N-(1-(1H-indol-3-yl)-4-hexene-2-yl)-6-(4-methylpiperazin-1-yl) benzo[b]thiophene-2-carboxamide]	85.4	

Further lines, results first:

inhibition at 200 µg/mL [%]	inhibition rate (%)	SMILES
93.3		CCCCC(Cc1c[nH]c2ccc(F)cc12)NC(=O)c1cc2ccc(N3CCN(C)CC3)cc2s1 (stereo not shown) [Example 26, N-(1-(5-fluoro-1H-indole-3-yl)hexane-2-yl)-6-(4-methylpiperazine-1-yl) benzo [b] thiophene-2-carboxamide]
90.8		CCCCC(Cc1c[nH]c2ccccc12)NC(=O)c1cc2ccc(N3CC4(CN(C)C4)C3)cc2s1 (stereo not shown) [Example 25, N-(1-(1H-indol-3-yl)hexane-2-yl)-6-(6-methyl-2,6-diazaspiro [3.3]heptane-2-yl) benzo[b]thiophene-2-carboxamide]
93.4		CC(C)CCC(Cc1c[nH]c2ccccc12)NC(=O)c1cc2ccc(N3CCN(C)CC3)cc2s1 (stereo not shown) [Example 33, N-(1-(1H-indol-3-yl)-5-methylhexane-2-yl)-6-(4-methylpiperazin-1-yl) benzo[b]thiophene-2-carboxamide]
95.6		CCCCC(Cc1c[nH]c2ccccc12)NC(=O)c1cc2ccc(N3CCC4(CC3)COC4)cc2s1 (stereo not shown) [Example 20, N-[1-(1H-indol-3-yl)hexane-2-yl]-6-(2-oxa-7-azaspiro [3.5]nonan-7-yl)-1-benzothiophene-2-carboxamide]
73		CCCCC(Cc1c[nH]c2ccccc12)NC(=O)c1cc2ccc(N3CCN(C)CC3)cc2[nH]1 (stereo not shown) [Example 28, N-(1-(1H-indole-3-yl)hexane-2-yl)-6-(4-methylpiperazine-1-yl)-1H-indole-2-carboxamide]
98.2		CCCCC(Cc1c[nH]c2ccccc12)NC(=O)c1cc2ccc(N3CCN(C)CC3)c(F)c2s1 (stereo not shown) [Example 17, 7-Fluoro-N-[1-(1H-indol-3-yl)hexyl-2-yl]-6-(4-methylpiperazin-1-yl)-1-benzothiophene-2-carboxamide]
95.3		CCCCC(Cc1c[nH]c2ccncc12)NC(=O)c1cc2ccc(N3CCN(C)CC3)cc2s1 (stereo not shown) [Example 31, N-(1-(1H-pyrrole[3,2-c]pyridin-3-yl)hexane-2-yl)-6-(4-methylpiperazine-1-yl) benzo[b]thiophene-2-carboxamide]
76.9		CCCCC(Cc1c[nH]c2ccccc12)NC(=O)c1cc2cnc(N3CCC(C)CC3)cc2s1 (stereo not shown) [Example 18, N-(1-(1H-indol-3-yl)hexane-2-yl)-6-(4-methylpiperidin-1-yl) thieno[3,2-c]pyridine-2-carboxamide]
89.7		CCCCC(Cc1c[nH]c2ccccc12)NC(=O)c1cc2ccc(N3CCN(S(=O)(=O)C4CC4)CC3)cc2s1 (stereo not shown) [Example 44, 6-[4-(Cyclopropanesulfonyl)piperazine-1-yl]-N-[1-(1H-indol-3-yl)hexane-2-yl]-1-benzothiophene-2-carboxamide]
	87.6	CCCCC(Cc1c[nH]c2ccccc12)NC(=O)c1cc2ccc(N3CCN(C)CC3)cc2o1 (stereo not shown) [Example 27, N-(1-(1H-indole-3-yl)hexan-2-yl)-6-(4-methylpiperazine-1-yl) benzofuran-2-carboxamide]
71.4		CCCCC(Cc1c[nH]c2ccc(C)cc12)NC(=O)c1cc2ccc(N3CCN(C)CC3)cc2s1 (stereo not shown) [Example 30, N-(1-(5-methyl-1H-indole-3-yl)hexane-2-yl)-6-(4-methylpiperazine-1-yl) benzo[b]thiophene-2-carboxamide]
96.3		CCCCC(Cc1c[nH]c2ccccc12)NC(=O)c1cc2ccc(N3CCC(C)(C)CC3)cc2s1 (stereo not shown) [Example 16, N-(1-(1H-indol-3-yl)hexane-2-yl)-6-(4,4-dimethylpiperidin-1-yl) benzo[b]thiobene-2-carboxamide]
95.7		CCCCC(Cc1c[nH]c2ccccc12)NC(=O)c1cc2ccc(N3CC4(C3)CC(C)(O)C4)cc2s1 (stereo not shown) [Example 50, N-(1-(1H-indol-3-yl)hexane-2-yl)-6-(6-hydroxy-6-methyl-2-azaspiro [3.3]heptane-2-yl) benzo[b]thiophene-2-carboxamide]
85.3		CCCCC(Cc1c[nH]c2ccccc12)NC(=O)c1cc2ccc(N3CCN(C)CC3)cc2n1C (stereo not shown) [Example 36, N-[1-(1H-indol-3-yl)hexyl-2-yl]-1-methyl-6-(4-methylpiperazin-1-yl)-1H-indole-2-carboxamide]
